As usually defined, the IC50 is the point on the concentration scale where inhibition reaches its midpoint. Read a low IC50 as greater potency in that assay.

The experiment can be described thus: Inhibition of human 11-beta HSD in microsomes from HEK293 cells by SPA method.
For `O=C(c1cccc(-c2ccccc2-c2ccccc2)n1)N1CCCC2CCCCC21` (stereo unspecified), the IC50 was determined as 4.7 nM.

For `O=C(c1cccc(COc2c(Cl)cccc2Cl)n1)N1CCCC2CCCCC21` (stereo unspecified), it took 4.6 nM to reach half-maximal inhibition (IC50). The compound `CC1CCN(C(=O)c2cc(CS(=O)(=O)c3c(Cl)cccc3Cl)ccn2)CC1` yielded a 50% inhibitory concentration (IC50) of 319 nM. For `CC1CCN(C(=O)c2cccc(Sc3ccccc3Cl)n2)CC1`, inhibition was half-maximal at 218 nM (IC50). In turn, `CC1CCN(C(=O)c2ccc(CS(=O)(=O)c3c(Cl)cccc3Cl)cn2)CC1` showed an IC50 of 2130 nM. Turning to `Cc1ccc(-c2cccc(C(=O)N3CCCC(C)(C)C3)n2)cc1F`, half-maximal inhibition (IC50) required 0.1 nM.

On to `O=C(c1cncc(CS(=O)(=O)c2c(Cl)cccc2Cl)c1)N1CCOCC1`, for which the IC50 is greater than 10000 nM. The same measure for `CC1CCN(C(=O)c2cccc(CSc3c(Cl)cccc3Cl)n2)CC1`: 7.2 nM; for `CC1(C)CCCN(C(=O)c2cccc(COc3c(Cl)cc(Cl)cc3Cl)n2)C1`: 6.5 nM. As for `O=C(c1cncc(CS(=O)(=O)c2c(Cl)cccc2Cl)c1)N1CCCCC1`, the figure is 220 nM; as for `O=C(c1cncc(CS(=O)(=O)c2c(Cl)cccc2Cl)c1)N1CCCCCCCC1`, 2.5 nM; as for `NC(=O)C1CCN(C(=O)c2cncc(CS(=O)(=O)c3c(Cl)cccc3Cl)c2)CC1`, 2350 nM.

Take `CC1(C)CCCN(C(=O)c2cccc(-c3ccc(Cl)cc3)n2)C1`: half-maximal inhibition (IC50) required 1.1 nM.

`O=C(c1cncc(CS(=O)(=O)c2c(Cl)cccc2Cl)c1)N1CCCCCC1` yielded an IC50 of 21 nM. `CC1CCN(C(=O)c2cccc(CS(=O)(=O)c3c(Cl)cccc3Cl)c2)CC1` had an IC50 of 13 nM. `CC1(C)CCCN(C(=O)c2cccc(-c3ccccc3Cl)n2)C1` showed a half-maximal inhibitory concentration (IC50) of 2.9 nM.

Compound `CC1CCN(C(=O)c2cccc(S(=O)(=O)c3ccccc3Cl)n2)CC1` displayed a concentration for half-maximal inhibition (IC50) of 4670 nM. As for `CC1CCN(C(=O)c2ccc(CS(=O)(=O)c3c(Cl)cccc3Cl)nc2)CC1`, the figure is 2050 nM; as for `O=C(c1cncc(CS(=O)(=O)c2c(Cl)cccc2Cl)c1)N1CCCC1`, 2140 nM.

With `CC1CCN(C(=O)c2cccc(Nc3ccccc3Cl)n2)CC1`, inhibition was half-maximal at 381 nM (IC50).

The compound `CC1(C)CCCN(C(=O)c2cccc(-c3ccc(OC(F)(F)F)cc3)n2)C1` yielded an IC50 of 1.1 nM. As for `CC1CCN(C(=O)c2ccc(CSc3ccc(Cl)cc3)cc2)CC1`, the figure is 235 nM. Regarding `CC1CCN(C(=O)c2ccnc(CS(=O)(=O)c3c(Cl)cccc3Cl)c2)CC1`, the IC50 worked out at 106 nM. Compound `CC1CCN(C(=O)c2cccc(COc3c(Cl)cccc3Cl)n2)CC1` registered an IC50 of 79 nM. With `CC1CCN(C(=O)c2cccc(Oc3ccccc3Cl)n2)CC1`, 282 nM corresponded to half-maximal inhibition (IC50). In turn, `O=C(c1cccc(-c2ccc(C(F)(F)F)cc2)n1)N1CCCC2CCCCC21` (stereo unspecified) registered an IC50 of 3.6 nM. The same measure for `O=C(c1cncc(COc2c(Cl)cccc2Cl)c1)N1CCCCC1c1cccnc1` (stereo unspecified): 2 nM; for `O=C(c1cncc(CS(=O)(=O)c2c(Cl)cccc2Cl)c1)N1CCCCCCC1`: 11 nM; for `O=C(c1cccc(-c2ccccc2[N+](=O)[O-])n1)N1CCCC2CCCCC21` (stereo unspecified): 2 nM. For `CC1(C)C[C@H]2C[C@](C)(CN2C(=O)c2cncc(COc3c(Cl)cccc3Cl)c2)C1`, the concentration for half-maximal inhibition (IC50) came out at 1.7 nM. Take `CC1CCN(C(=O)c2cncc(CS(=O)(=O)c3c(Cl)cccc3Cl)c2)CC1`: the half-maximal inhibitory concentration (IC50) stood at 22 nM.

(Values after ChEMBL document CHEMBL1145557, “Pyridine amides as potent and selective inhibitors of 11beta-hydroxysteroid dehydrogenase type 1” (Bioorg Med Chem Lett, 2008).)
